The values below come from PMC8582824, “Targeting DDX3X Helicase Activity with BA103 Shows Promising Therapeutic Effects in Preclinical Glioblastoma Models” (Cancers, 2021).

The structures appear in SMILES notation. ≈ marks a conversion by molar mass, not a printed value.

Series [1] has as its target T1, ATPase DDX3X (Homo sapiens, UniProt O00571).
T1 construct: Recombinant his-tagged human full length DDX3X; His tag; made in house; host or cells: ShuffleT7 E. coli
As to the kind of experiment: DDX3X ATPase activity inhibition. Particulars: for IC50: >200 = less than 20% inhibition at 200 µM, highest concentration tested, read-out: ATPase DDX3X IC50 ± SD. It is filed as biochemical. The source says:
(§1) To confirm the proposed mechanism of action and the selectivity of our compounds for the helicase binding site, we tested the capability of BA103 to inhibit the ATPase activity of DDX3X and the helicase activity of DDX1, which is another human member of the DEAD-box family.

For series [2], the target named is T2, DDX1 (Homo sapiens, UniProt Q92499).
T2 sequence (Q92499 1-740): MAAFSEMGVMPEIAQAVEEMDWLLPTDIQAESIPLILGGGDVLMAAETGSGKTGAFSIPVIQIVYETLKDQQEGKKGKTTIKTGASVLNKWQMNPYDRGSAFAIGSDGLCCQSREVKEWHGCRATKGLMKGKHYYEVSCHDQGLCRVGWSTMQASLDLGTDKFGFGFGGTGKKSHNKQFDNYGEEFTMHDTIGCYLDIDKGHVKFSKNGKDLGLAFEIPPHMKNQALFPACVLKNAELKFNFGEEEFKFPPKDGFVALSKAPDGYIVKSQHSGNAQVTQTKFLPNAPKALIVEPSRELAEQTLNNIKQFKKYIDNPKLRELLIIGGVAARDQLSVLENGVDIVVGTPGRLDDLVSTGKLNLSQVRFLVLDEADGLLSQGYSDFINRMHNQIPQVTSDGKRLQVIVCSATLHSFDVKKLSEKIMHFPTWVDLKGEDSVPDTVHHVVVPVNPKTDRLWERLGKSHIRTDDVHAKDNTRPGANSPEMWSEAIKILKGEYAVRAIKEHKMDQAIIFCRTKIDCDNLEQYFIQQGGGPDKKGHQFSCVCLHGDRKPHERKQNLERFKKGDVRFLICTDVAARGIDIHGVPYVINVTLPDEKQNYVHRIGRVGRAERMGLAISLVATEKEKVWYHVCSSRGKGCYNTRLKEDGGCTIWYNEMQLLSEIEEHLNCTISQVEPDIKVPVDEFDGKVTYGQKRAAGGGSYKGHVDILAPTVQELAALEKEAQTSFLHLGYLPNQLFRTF
As to the kind of experiment: DDX1 helicase activity inhibition. Particulars: for IC50: helicase activity of DDX1, read-out: DDX1 IC50 ± SD. It is filed as biochemical.
From the text: as §1

The nature of series [3]: Water solubility assay. It is filed as physicochemical. The note with it: 27 °C, thermodynamic from solid, read-out: LogS (aqueous solubility) (converted). The protocol:
Preliminary in vitro ADME analysis was performed to early evaluate the pharmacokinetic (PK) profile of our compounds (Figure 8). Aqueous solubility was calculated by LC-MS-MS analysis. An aliquot of 1 mg of compound was stirred for 24 h at 27 °C in 1 mL of water. The mixture was filtered, and the quantity of solubilized compound was determined. Passive permeability was determined using parallel artificial membrane permeability assay (PAMPA). Microsomal metabolic stability was determined by LC-UV-MS analysis by incubating compounds with human liver microsomes at 37 °C for 60 min (for details, see the Supporting Information). […]
Each solid compound (1 mg) was added to 1 mL of water. The samples were shaked in a shaker bath at room temperature for 24-36 h. The suspensions were filtered through a 0.45 μm nylon filter (Acrodisc), and the solubilized compound determined by LC-MS-MS assay. For each compound the determination was […]
For the quantification was used an LC-MS system consisted of a Varian apparatus (Varian Inc) including a vacuum solvent degassing unit, two pumps (212-LC), a Triple Quadrupole MSD (Mod. 320-LC) mass spectrometer with ES interface and Varian MS Workstation System Control Vers. 6.9 software.
Chromatographic separation was obtained using a Pursuit C18 column (50 x 2.0 mm) (Varian) with 3 μm particle size and gradient elution: eluent A being ACN and eluent B consisting of water. […] The flow rate was 0.2 mL min-1 and injection volume was 5 μL. The instrument operated in positive mode and parameters were: detector 1850 V, drying gas pressure 25.0 psi, desolvation temperature 300.0 °C, nebulizing gas 40.0 psi, needle 5000 V and shield 600 V. Nitrogen was used as nebulizer gas and drying gas. […]
Chromatographic analysis was performed with an Agilent 1100 LC/MSD VL system (G1946C) (Agilent Technologies, Palo Alto, CA) constituted by a vacuum solvent degassing unit, a binary high-pressure gradient pump, an 1100 series UV detector, and an 1100 MSD model VL benchtop mass spectrometer.
Chromatographic separation was obtained using a Varian Polaris C18-A column (150-4.6 mm, 5 μm particle size) and gradient elution: eluent A being ACN and eluent B consisting of water. The analysis started with 2% […]
flow rate was 0.8 mL min-1 and injection volume was 20 μL.
The Agilent 1100 series mass spectra detection (MSD) single-quadrupole instrument was equipped with the orthogonal spray API-ES (Agilent Technologies, Palo Alto, CA). Nitrogen was used as nebulizing and drying gas. The pressure of the nebulizing gas, the flow of the drying gas, the capillary voltage, the fragmentor voltage, and the vaporization temperature were set at 40 psi, 9 L/min, 3000 V, 70 V, and 350 °C, respectively. […]
Spectra were acquired over the scan range m/z 100-1500 using a step size of 0.1 u. […]

T1 sequence (O00571 whole entry): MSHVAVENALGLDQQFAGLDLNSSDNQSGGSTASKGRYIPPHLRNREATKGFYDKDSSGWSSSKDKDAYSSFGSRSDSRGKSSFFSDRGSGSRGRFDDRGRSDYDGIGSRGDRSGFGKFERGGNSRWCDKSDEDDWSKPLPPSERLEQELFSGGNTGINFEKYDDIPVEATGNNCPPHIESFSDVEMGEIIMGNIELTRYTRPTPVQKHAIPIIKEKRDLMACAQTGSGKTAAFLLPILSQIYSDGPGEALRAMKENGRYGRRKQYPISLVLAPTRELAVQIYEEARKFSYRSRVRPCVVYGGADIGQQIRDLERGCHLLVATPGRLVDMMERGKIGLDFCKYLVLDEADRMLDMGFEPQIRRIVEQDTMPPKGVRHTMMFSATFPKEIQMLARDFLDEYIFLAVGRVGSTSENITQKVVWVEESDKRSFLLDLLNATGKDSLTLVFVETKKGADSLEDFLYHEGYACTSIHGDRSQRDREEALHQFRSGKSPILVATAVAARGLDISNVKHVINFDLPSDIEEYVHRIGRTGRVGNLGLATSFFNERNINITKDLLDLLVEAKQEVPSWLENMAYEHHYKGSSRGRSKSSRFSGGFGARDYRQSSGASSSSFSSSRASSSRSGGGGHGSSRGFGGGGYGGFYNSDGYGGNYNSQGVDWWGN

As usually defined, the IC50 is the concentration that gives 50% inhibition. Regarding `CCCCc1cn(-c2ccc(NC(=O)Nc3ccccc3C(F)(F)F)cc2)nn1` [BA103, 1-(4-(4-Butyl-1H-1,2,3-triazol-1-yl)phenyl)-3-(2-(trifluoromethyl)phenyl)urea], the IC50 in series [1] is > 200 µM. Also, the “inhibition of the ATPase activity of DDX3X” value in series [1] (any compound concentration) is recorded as “no inhibition”. Moreover, in series [2], the “SI (Selectivity Index)” value is >250 and the IC50 was > 100 µM.
Turning to `CCCCc1cn(-c2ccc(NC(=O)Nc3ccccc3C)cc2)nn1` [Compound 1, reference compound], the IC50 in series [1] and in series [2] was > 200 µM each time. Also, the “SI (Selectivity Index)” value in series [2] is given as >666.
For orientation: solubility means the concentration that dissolves in the medium under given conditions. As to `CCCCc1nnc(-c2ccc(NC(=O)Nc3ccccc3C(F)(F)F)cc2)o1` [Compound 3, 1-(4-(5-Butyl-1,3,4-oxadiazol-2-yl)phenyl)-3-(2-(trifluoromethyl)phenyl)urea], the solubility at 24 h in series [3] is < 0.0251 µM.
As for `CCCCc1nnc(-c2ccc(NC(=O)Nc3ccccc3C(F)(F)F)cc2)[nH]1` [Compound 4, 1-(4-(5-Butyl-4H-1,2,4-triazol-3-yl)phenyl)-3-(2-(trifluoromethyl)phenyl)urea], in series [2], the “SI (Selectivity Index)” value is on record as 418 and the IC50 was determined as 29.3 ± 16.8 µM. For the same molecule, the solubility at 24 h in series [3] is 0.275 µM (≈ 0.111 µg/mL).
With `CCCCn1nnc(-c2ccc(NC(=O)Nc3ccccc3C(F)(F)F)cc2)n1` [Compound 6, 1-(4-(2-Butyl-2H-tetrazol-5-yl)phenyl)-3-(2-(trifluoromethyl)phenyl)urea], the solubility at 24 h in series [3] was < 0.0251 µM.
With `CC(C)CCc1cn(-c2ccc(NC(=O)Nc3cccc4cnccc34)cn2)nn1` [Compound 10, 1-(6-(4-Isopentyl-1H-1,2,3-triazol-1-yl)pyridin-3-yl)-3-(isoquinolin-5-yl)urea], in series [2], the “SI (Selectivity Index)” value is given as >1000 and the IC50 was > 100 µM. In addition, the solubility at 24 h in series [3] was < 0.0363 µM.
